Like-named read-outs stand apart in the source and are kept apart here.

The test system of data set [1] is type 2 diabetic C57BL/6 db/db mice. In words: Hypoglycemic effect after subcutaneous injection in db/db mice. It is filed as in vivo, mouse.
The conditions of data set [2]: cited from earlier work.

“Albiglutide: a exendin-4-albumin fusion protein, FDA approved, once a week administration” returned a blood glucose level in data set [1] (dose 14 nmol/kg (Figure S8b)) of 11.88 mmol/L. The “time required to rebound to a glucose level of 8.35 mmol/L (hypoglycemic duration)” value in data set [1] (dose 69 nmol/kg) turned out to be 11 h; in data set [1] (dose 123 nmol/kg (Figure S8d)), 28 h. The lowest glucose level is 7.03 mmol/L in data set [1] (dose 69 nmol/kg, three mice, mean) and 6.67 mmol/L in data set [1] (dose 123 nmol/kg (Figure S8c)). Further, the half-lifetime in data set [2] was 96 to 170 h.

Turning to Exenatide: commercial exendin-4, in data set [2], the circulating half-life is 1.5 to 3.6 h.

Turning to “GLP-1: 30-amino-acid peptide hormone secreted from gut endocrine L cells”, the half-lifetime in data set [2] (endogenous GLP-1, degraded by DPP-4 once secreted) is 0.017 to 0.033 h.

The values are drawn from publication PMC5219937 (Bioconjugate chemistry, 2015).
